# In patent publication US20090176817A1, “Method of Treatment of Diarrhea-Predominant Irritable Bowel Syndrome in a Subject” (priority 2005, published 2009):
# Key:
# [1] = Study S241.1.111: relative bioavailability and food effect, 2 mg tablet vs oral solution; assay type: in vivo, human; conditions: for AUC(0-t): AUC(0-last); for half-life: T½
# Method: Subjects were randomized to receive a cilansetron 2 mg tablet after an overnight fast, a cilansetron 2 mg tablet after a high-fat breakfast, and a cilansetron 2 mg oral solution after an overnight fast during the three treatment periods, with a 7-day washout between periods. Serial blood sampling was performed up to 24 hours following each treatment, and plasma pharmacokinetics parameters for cilansetron and its metabolites, (4R)-hydroxy cilansetron and (4S)-hydroxy cilansetron, were estimated. FIG. 4, FIG. 5, and FIG. 6 present mean plasma concentration-time profiles for cilansetron and its metabolites following treatment with the cilansetron tablet and oral solution. Table 2.7.1.2.2 presents descriptive statistics for the pharmacokinetic parameters of cilansetron and its metabolites for the tablet and oral solution, and the results of statistical comparisons between treatments (tablet versus solution).
# Subjects were randomized to receive a cilansetron 2 mg tablet after an overnight fast, a cilansetron 2 mg tablet after a high-fat breakfast, and a cilansetron 2 mg oral solution after an overnight fast during the three treatment periods, with a 7-day washout between periods. Serial blood sampling was performed up to 24 hours following each treatment and plasma pharmacokinetics parameters for cilansetron and its metabolites, (4R)-hydroxy cilansetron and (4S)-hydroxy cilansetron, were estimated. FIG. 7, FIG. 8, and FIG. 9 present mean plasma concentration-time profiles for cilansetron and its metabolites following treatment with the cilansetron tablet under fasted conditions and following a high-fat meal. Table 2.7.1.2.4 presents descriptive statistics for the pharmacokinetic parameters of cilansetron and its metabolites for the tablet under fed and fasted conditions, and the results of statistical comparisons between treatments (fed versus fasted).
# [2] = Study S.241.1.109: interaction with fluvoxamine 50 mg QD; assay type: in vivo, human; conditions: for AUC(0-τ) / Cmax / Tmax: steady state; for AUC(0-τ): AUC(0-8); for AUC(0-τ) / Cmax: arith. mean; for Tmax: median; for AUC(0-τ) Ratio (Treatment B/A) / Cmax Ratio (Treatment B/A): cilansetron + fluvoxamine / cilansetron alone, ANOVA of log-transformed data
# Method: (§1) In an open-label, randomized, parallel-group study in three groups of 12 healthy, male and female subjects (aged 19 to 45 years), subjects received a 2 mg single dose of cilansetron on Day 1, 2 mg TID on Days 2-13, and a 2 mg single dose on Day 14. […] All morning doses of cilansetron and enzyme inhibitors were administered immediately after a standard breakfast. […] For each treatment group, log-transformed cilansetron AUC(0-τ) and Cmax values on Day 14 (cilansetron+enzyme inhibitor) were compared statistically versus values on Day 7 (cilansetron alone).
# FIG. 42, FIG. 43, and FIG. 44 present geometric mean steady-state plasma concentration-time profiles for cilansetron and its 4-hydroxy metabolites in the absence and presence of concomitant fluvoxamine.
# human P-glycoprotein = target: T1, human P-glycoprotein (Homo sapiens, UniProt P08183); assay: Study K.241.6026: in vitro transport by P-glycoprotein in PK 1 LLC MDR cells; assay type: in vitro ADME
# T1 construct: expressed in transfected cells; host or cells: PK 1 LLC MDR cells (LLC-PK1 porcine kidney cells expressing human MDR1, by own knowledge)
# T1 sequence (P08183 whole entry): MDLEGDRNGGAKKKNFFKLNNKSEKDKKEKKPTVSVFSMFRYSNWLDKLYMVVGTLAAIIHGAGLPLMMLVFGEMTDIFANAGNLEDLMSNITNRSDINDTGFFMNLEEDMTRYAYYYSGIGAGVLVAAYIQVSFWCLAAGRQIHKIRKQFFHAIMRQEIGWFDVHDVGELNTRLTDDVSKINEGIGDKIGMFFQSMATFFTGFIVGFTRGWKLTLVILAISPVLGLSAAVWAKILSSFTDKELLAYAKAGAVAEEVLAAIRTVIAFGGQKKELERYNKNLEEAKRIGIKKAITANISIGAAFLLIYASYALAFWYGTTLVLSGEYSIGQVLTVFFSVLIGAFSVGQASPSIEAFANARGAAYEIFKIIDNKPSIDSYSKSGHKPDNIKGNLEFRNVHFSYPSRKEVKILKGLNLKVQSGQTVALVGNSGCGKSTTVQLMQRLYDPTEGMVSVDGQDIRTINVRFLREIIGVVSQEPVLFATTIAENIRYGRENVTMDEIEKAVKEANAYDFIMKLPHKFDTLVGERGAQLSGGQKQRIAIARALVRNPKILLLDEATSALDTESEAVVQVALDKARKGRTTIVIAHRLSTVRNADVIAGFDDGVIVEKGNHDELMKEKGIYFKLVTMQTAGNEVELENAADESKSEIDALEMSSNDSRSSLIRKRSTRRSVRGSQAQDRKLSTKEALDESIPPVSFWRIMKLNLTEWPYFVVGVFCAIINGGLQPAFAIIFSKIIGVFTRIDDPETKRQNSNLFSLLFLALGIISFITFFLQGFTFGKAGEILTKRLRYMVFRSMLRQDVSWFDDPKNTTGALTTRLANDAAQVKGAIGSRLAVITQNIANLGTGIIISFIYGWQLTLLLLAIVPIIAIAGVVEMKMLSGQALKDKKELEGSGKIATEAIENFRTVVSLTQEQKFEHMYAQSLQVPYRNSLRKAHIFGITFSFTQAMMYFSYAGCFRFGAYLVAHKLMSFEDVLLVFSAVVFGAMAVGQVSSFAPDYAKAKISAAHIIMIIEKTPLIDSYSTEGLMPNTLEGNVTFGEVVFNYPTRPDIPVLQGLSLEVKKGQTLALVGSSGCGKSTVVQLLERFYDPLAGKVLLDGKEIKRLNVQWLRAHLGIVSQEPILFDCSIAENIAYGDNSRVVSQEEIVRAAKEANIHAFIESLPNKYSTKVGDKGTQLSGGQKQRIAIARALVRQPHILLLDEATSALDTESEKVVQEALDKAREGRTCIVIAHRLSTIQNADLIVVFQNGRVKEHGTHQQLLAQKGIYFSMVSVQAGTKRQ
# [3] = Study S.241.1.109: interaction with paroxetine 20 mg QD; assay type: in vivo, human; conditions: for AUC(0-τ) / Cmax / Tmax: steady state; for AUC(0-τ): AUC(0-8); for AUC(0-τ) / Cmax: arith. mean; for Tmax: median; for AUC(0-τ) Ratio (Treatment B/A) / Cmax Ratio (Treatment B/A): cilansetron + paroxetine / cilansetron alone, ANOVA of log-transformed data; for Mean AUC increase with paroxetine / Mean Cmax increase with paroxetine: human
# Method: as §1
# FIG. 50, FIG. 51, and FIG. 52 present geometric mean steady-state plasma concentration-time profiles for cilansetron and its 4-hydroxy metabolites in the absence and presence of concomitant paroxetine. […] These increases in exposure are not clinically significant.
# [4] = 2 mg oral solution, fasted, median
# [5] = 2 mg tablet, fasted, single dose
# [6] = 2 mg tablet, fed (high-fat breakfast)
# [7] = Cilansetron 2 mg TID + Fluvoxamine 50 mg once daily
# [8] = Cilansetron 2 mg TID alone (fluvoxamine group)
# [9] = arithmetic mean percentages transported, 3 hours of incubation
# [10] = Cilansetron 2 mg TID + Paroxetine 20 mg QD
# [11] = Cilansetron 2 mg TID alone (paroxetine group)
# [12] = both sexes, human, in vivo, 2 mg
# [13] = both sexes, human, in vivo, po, 2 mg
smiles,measurement,setting,value
Cc1nccn1CC1CCc2c(c3cccc4c3n2CC[C@H]4O)C1=O (stereo partly drawn) [(4R)-hydroxy cilansetron],AUC(0-inf),"[1]; 2 mg oral solution, fasted",14.3 (26) ng · h/mL
same,AUC(0-last),"[1]; 2 mg oral solution, fasted",13.5 (27) ng · h/mL
same,Cmax,"[1]; 2 mg oral solution, fasted",2.82 (26) ng/mL
same,T½,"[1]; 2 mg oral solution, fasted",3.90 (19) h
same,Tmax,[1]; [4],1.00 h
same,AUC(0-inf),[1]; [5],14.4 (25) ng · h/mL
same,AUC(0-last),[1]; [5],13.7 (26) ng · h/mL
same,Cmax,[1]; [5],2.87 (20) ng/mL
same,T½,[1]; [5],3.90 (22) h
same,Tmax,"[1]; 2 mg tablet, fasted, median",1.25 h
same,AUC(0-inf),"[1]; 2 mg tablet, fed",13.6 (26) ng · h/mL
same,Cmax,"[1]; 2 mg tablet, fed",2.23 (26) ng/mL
same,T½,"[1]; 2 mg tablet, fed",4.46 (31) h
same,AUC(0-last),[1]; [6],12.8 (27) ng · h/mL
same,Tmax,"[1]; 2 mg tablet, fed, median",1.75 h
same,AUC(0-τ),[2]; [7],9.57 ng·h/mL
same,Cmax,[2]; [7],1.63 ng/mL
same,Tmax,[2]; [7],0.75 h
same,AUC(0-τ),[2]; [8],12.9 ng·h/mL
same,Cmax,[2]; [8],2.74 ng/mL
same,Tmax,[2]; [8],1.75 h
same,AUC(0-τ) Ratio (Treatment B/A),[2],76%
same,Cmax Ratio (Treatment B/A),[2],60%
same,Mean AUC decrease with fluvoxamine,"[2]; human, in vivo",24%
same,Mean Cmax decrease with fluvoxamine,"[2]; human, in vivo",40%
same,Membrane Passage,human P-glycoprotein; [9],14%
same,AUC(0-τ),[3]; [10],15.2 ng·h/mL
same,Cmax,[3]; [10],3.41 ng/mL
same,Tmax,[3]; [10],1.50 h
same,AUC(0-τ),[3]; [11],13.5 ng·h/mL
same,Cmax,[3]; [11],2.76 ng/mL
same,Tmax,[3]; [11],2.50 h
same,AUC(0-τ) Ratio (Treatment B/A),[3],116%
same,Cmax Ratio (Treatment B/A),[3],127%
same,Mean AUC increase with paroxetine,[3]; in vivo,16%
same,Mean Cmax increase with paroxetine,[3]; in vivo,27%
Cc1nccn1CC1CCc2c(c3cccc4c3n2CC[C@@H]4O)C1=O (stereo partly drawn) [(4S)-hydroxy cilansetron],AUC(0-inf),"[1]; 2 mg oral solution, fasted",7.20 (23) ng · h/mL
same,AUC(0-last),"[1]; 2 mg oral solution, fasted",5.82 (24) ng · h/mL
same,Cmax,"[1]; 2 mg oral solution, fasted",0.607 (19) ng/mL
same,T½,"[1]; 2 mg oral solution, fasted",7.13 (25) h
same,Tmax,[1]; [4],3.00 h
same,AUC(0-inf),[1]; [5],7.31 (22) ng · h/mL
same,AUC(0-last),[1]; [5],5.98 (22) ng · h/mL
same,Cmax,[1]; [5],0.637 (17) ng/mL
same,T½,[1]; [5],7.26 (32) h
same,Tmax,"[1]; 2 mg tablet, fasted, median",3.00 h
same,AUC(0-inf),"[1]; 2 mg tablet, fed",7.54 (19) ng · h/mL
same,Cmax,"[1]; 2 mg tablet, fed",0.602 (17) ng/mL
same,T½,"[1]; 2 mg tablet, fed",7.94 (34) h
same,AUC(0-last),[1]; [6],6.10 (19) ng · h/mL
same,Tmax,"[1]; 2 mg tablet, fed, median",4.00 h
same,AUC(0-τ),[2]; [7],7.17 ng·h/mL
same,Cmax,[2]; [7],1.07 ng/mL
same,Tmax,[2]; [7],2.00 h
same,AUC(0-τ),[2]; [8],7.29 ng·h/mL
same,Cmax,[2]; [8],1.17 ng/mL
same,Tmax,[2]; [8],3.00 h
same,AUC(0-τ) Ratio (Treatment B/A),[2],101%
same,Cmax Ratio (Treatment B/A),[2],93%
same,Membrane Passage,human P-glycoprotein; [9],13%
same,AUC(0-τ),[3]; [10],7.62 ng·h/mL
same,Cmax,[3]; [10],1.23 ng/mL
same,Tmax,[3]; [10],3.00 h
same,AUC(0-τ),[3]; [11],7.97 ng·h/mL
same,Cmax,[3]; [11],1.22 ng/mL
same,Tmax,[3]; [11],3.00 h
same,AUC(0-τ) Ratio (Treatment B/A),[3],99%
same,Cmax Ratio (Treatment B/A),[3],105%
"Cc1nccn1C[C@H]1CCc2c(c3cccc4c3n2CCC4)C1=O [Cilansetron, (R)-(−)-4,5,6,8,9,10-hexahydro-10-[(2-methyl-1H-imidazol-1-yl)methyl]-11H-pyrido-[3,2,1-jk]-carbazol-11-one]",AUC(0-inf),"[1]; both sexes, human, in vivo, 2 mg, AUC(0-inf)",22.8 ng·h/mL
same,AUC(0-t),[1]; [12],22.4 ng·h/mL
same,Cmax,"[1]; both sexes, human, in vivo, 2 mg, Cmax",8.24 ng/mL
same,Tmax,"[1]; both sexes, human, in vivo, 2 mg, Tmax",1 h
same,half-life,[1]; [12],1.42 h
same,AUC(0-inf),"[1]; both sexes, human, in vivo, po, 2 mg, AUC(0-inf)",20.7 ng·h/mL
same,AUC(0-t),[1]; [13],20.2 ng·h/mL
same,Cmax,"[1]; both sexes, human, in vivo, po, 2 mg, Cmax",7.55 ng/mL
same,Tmax,"[1]; both sexes, human, in vivo, po, 2 mg, Tmax",1 h
same,half-life,[1]; [13],1.48 h
same,Intrasubject % CV for AUC,"[1]; both, human, in vivo",19.2%
same,Intrasubject % CV for Cmax,"[1]; both, human, in vivo",24.5%
same,AUC(0-inf) increase under fed conditions,"[1]; both, human, in vivo, 2 mg",20%
same,AUC(0-inf) ratio fed/fasted,"[1]; both, human, in vivo, 2 mg",121%
same,Cmax ratio fed/fasted,"[1]; both, human, in vivo, 2 mg",101%
same,AUC(0-inf) ratio tablet/oral solution,"[1]; both, human, in vivo, po",99%
same,Cmax ratio tablet/oral solution,"[1]; both, human, in vivo, po",108%
same,Increase in cilansetron exposure with fluvoxamine,"[2]; both, human, in vivo",3.7-6.6 fold
same,Mean AUC increase with fluvoxamine,"[2]; both, human, in vivo",6.6 fold
same,Mean Cmax increase with fluvoxamine,"[2]; both, human, in vivo",3.7 fold
same,Concentration required to saturate P-glycoprotein in vitro,human P-glycoprotein; human,above 1000 ng/mL
same,Membrane Passage,"human P-glycoprotein; human, 3 h",33%
same,P-gp Factor,"human P-glycoprotein; human, 3 h",3
same,Mean AUC increase with paroxetine,"[3]; both, in vivo",20%
same,Mean Cmax increase with paroxetine,"[3]; both, in vivo",36%
same,Effect of paroxetine,[3]; in vivo,no significant effect
